Key:
human GHS receptor [1] = target: T1, human GHS receptor (Homo sapiens, UniProt Q92847); assay: h bind IC50 (binding assay, Table 1); details: human receptor; Table 1
human GHS receptor [2] = target: T1, human GHS receptor; assay: Ghrelin IP1 agonist assay (IP1 HTRF); format: cell-based; set-up: expressed in transfected cells; host or cells: HEK293s; details: for Emax: 2 h, agonist effect as % maximal effect of GHRP-6 (5 μM), read-out: h IP1 ag %; for EC50: HEK293s cells stably expressing human GHS receptor, 2 hours at 37° C., read-out: h IP1 ag EC50
Summary of the method: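 Cells: HEK293s stably expressing human GHS receptor, in stimulation buffer containing 0.02% fatty acid free BSA.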

T1 sequence (Q92847 whole entry): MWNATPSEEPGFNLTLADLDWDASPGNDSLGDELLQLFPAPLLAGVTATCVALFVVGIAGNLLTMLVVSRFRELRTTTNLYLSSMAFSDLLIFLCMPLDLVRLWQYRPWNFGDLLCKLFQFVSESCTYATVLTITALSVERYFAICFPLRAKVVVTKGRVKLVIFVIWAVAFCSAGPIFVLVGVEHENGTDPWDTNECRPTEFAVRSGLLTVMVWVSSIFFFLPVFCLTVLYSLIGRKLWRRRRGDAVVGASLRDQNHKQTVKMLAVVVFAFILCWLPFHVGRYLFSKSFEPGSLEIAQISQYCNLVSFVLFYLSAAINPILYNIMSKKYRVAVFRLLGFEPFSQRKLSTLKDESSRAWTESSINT

Row | SMILES | IC50 (human GHS receptor [1]) [nM] | Emax (human GHS receptor [2]) [%] | EC50 (human GHS receptor [2]) [nM]
1 | CN(C)CCOCCS(=O)(=O)c1ccc2nc(NC(=O)NC(=O)c3ccccc3Cl)sc2c1 [Example 43, 2-Chloro-N-[[6-[2-(2-dimethylaminoethoxy)ethylsulfonyl]benzothiazol-2-yl]carbamoyl]benzamide] | 51.7 | 46 | 42.2
2 | CN1CCC(S(=O)(=O)c2ccc3nc(NC(=O)NC(=O)c4cc(-n5cccn5)ccc4Cl)sc3c2)CC1 [Example 100, 2-Chloro-N-(6-(1-methylpiperidin-4-ylsulfonyl)benzothiazol-2-ylcarbamoyl)-5-(1H-pyrazol-1-yl)benzamide] | 27.3 | 0 | ≥ 20000
3 | CS(=O)(=O)c1ccc2nc(NC(=O)NC(=O)c3ccccc3-c3ccccc3)sc2c1 [Example 105, N-[(6-Methylsulfonylbenzothiazol-2-yl)carbamoyl]-2-phenyl-benzamide] | 215 | 39.4 | 98.6
4 | CS(=O)(=O)c1ccc2nc(NC(=O)NC(=O)c3ccccc3F)sc2c1 [Example 108, 2-Fluoro-N-[(6-methylsulfonylbenzothiazol-2-yl)carbamoyl]benzamide] | 1640 | 8.69 | 24300
5 | C#Cc1ccc(Cl)c(C(=O)NC(=O)Nc2nc3ccc(S(C)(=O)=O)cc3s2)c1 [Example 61, 2-Chloro-5-ethynyl-N-(6-(methylsulfonyl)benzothiazol-2-ylcarbamoyl)benzamide] | 161 | 0.276 | > 25000
6 | CS(=O)(=O)c1ccc2nc(NC(=O)NC(=O)c3cc(-n4ccnn4)ccc3Cl)sc2c1 [Example 47, 2-Chloro-5-[1,2,3]triazol-1-yl-N-(6-(methylsulfonyl)benzothiazol-2-ylcarbamoyl)benzamide] | 81.6 | 0 | ≥ 25000
7 | CS(=O)(=O)c1ccc2nc(NC(=O)NC(=O)c3cc(-c4ncccn4)ccc3Cl)sc2c1 [Example 57, 2-Chloro-N-(6-(methylsulfonyl)benzothiazol-2-ylcarbamoyl)-5-(pyrimidin-2-yl)benzamide] | 162 | 0 | > 25000
8 | O=C(NC(=O)c1ccccc1Cl)Nc1nc2ccc(S(=O)(=O)CCN3CCOCC3)cc2s1 [Example 1, 2-Chloro-N-[[6-(2-morpholin-4-ylethylsulfonyl)benzothiazol-2-yl]carbamoyl]benzamide] | 64.4 | 24 | 29.2
9 | CN1CCN(CCCS(=O)(=O)c2ccc3nc(NC(=O)NC(=O)c4cc(-n5cccc5)ccc4Cl)sc3c2)CC1 [Example 85, 2-Chloro-N-(6-(3-(4-methylpiperazin-1-yl)propylsulfonyl)benzothiazol-2-ylcarbamoyl)-5-(1H-pyrrol-1-yl)benzamide] | 0.2 | 0.18 | ≥ 25000
10 | COCCNCCS(=O)(=O)c1ccc2nc(NC(=O)NC(=O)c3ccccc3Cl)sc2c1 [Example 2, 2-Chloro-N-[[6-[2-(2-methoxyethylamino)ethylsulfonyl]benzothiazol-2-yl]carbamoyl]benzamide] | 13.3 | 40.8 | 17.6

Second part, the compound after the results:

Row | IC50 (human GHS receptor [1]) [nM] | Emax (human GHS receptor [2]) [%] | EC50 (human GHS receptor [2]) [nM] | SMILES
11 | 296 | 48.3 | 11.4 | CC(C)N1CCC(S(=O)(=O)c2ccc3nc(NC(=O)NC(=O)c4ccccc4Cl)sc3c2)C1 (stereo not drawn) [Example 162, 2-Chloro-N-[[6-(1-propan-2-ylpyrrolidin-3-yl)sulfonylbenzothiazol-2-yl]carbamoyl]benzamide]
12 | 22.3 | 39.2 | 18.5 | CC(C)(C)OC(=O)N1CCC(CCS(=O)(=O)c2ccc3nc(NC(=O)NC(=O)c4ccccc4Cl)sc3c2)CC1 [Example 218, tert-Butyl 4-[2-[2-[(2-chlorobenzoyl)carbamoylamino]benzothiazol-6-yl]sulfonylethyl]piperidine-1-carboxylate]
13 | 76.2 | 52.2 | 8.43 | CCN1CCC(S(=O)(=O)c2ccc3nc(NC(=O)NC(=O)c4ccccc4Cl)sc3c2)CC1 [Example 173, 2-Chloro-N-[[6-[(1-ethyl-4-piperidyl)sulfonyl]benzothiazol-2-yl]carbamoyl]benzamide]
14 | 58.1 | 16.1 | 5.95 | O=C(NC(=O)c1ccccc1Cl)Nc1nc2ccc(S(=O)(=O)Cc3cccnc3)cc2s1 [Example 187, 2-Chloro-N-[[6-(pyridin-3-ylmethylsulfonyl)benzothiazol-2-yl]carbamoyl]benzamide]
15 | 8.7 | 51.3 | 13.4 | CN(C)CCCS(=O)(=O)c1ccc2nc(NC(=O)NC(=O)c3ccccc3Cl)sc2c1 [Example 202, 2-Chloro-N-[[6-(3-dimethylaminopropylsulfonyl)benzothiazol-2-yl]carbamoyl]benzamide]
16 | 19.3 | 12.6 | 46.5 | CNS(=O)(=O)c1ccc2nc(NC(=O)NC(=O)c3ccccc3Cl)sc2c1 [Example 230, 2-chloro-N-[[6-(methylsulfamoyl)-1,3-benzothiazol-2-yl]carbamoyl] benzamide]
17 | 36.8 | 64.6 | 54 | CN(C)C1CC(S(=O)(=O)c2ccc3nc(NC(=O)NC(=O)c4ccccc4Cl)sc3c2)C1 (stereo not drawn) [Example 216, 2-Chloro-N-[[6-(3-dimethylaminocyclobutyl)sulfonylbenzothiazol-2-yl]carbamoyl]benzamide]
18 | 58.9 | 0 | ≥ 20000 | CCOc1cc(C(=O)NC(=O)Nc2nc3ccc(S(=O)(=O)C4CCN(C)CC4)cc3s2)c(Cl)cc1OC [Example 256, 2-chloro-5-ethoxy-4-methoxy-N-(6-(1-methylpiperidin-4-ylsulfonyl)benzo [d]thiazol-2-ylcarbamoyl) benzamide]
19 | 464 | 9.59 | 114 | CS(=O)(=O)c1ccc2nc(NC(=O)NC(=O)c3ccccc3I)sc2c1 [Example 118, 2-Iodo-N-[(6-methylsulfonylbenzothiazol-2-yl)carbamoyl]benzamide]
20 | 3.82 | 6.73 | ≥ 20000 | CC(C)(C)OC(=O)N1CCN(c2ccc(Cl)c(C(=O)NC(=O)Nc3nc4ccc(S(C)(=O)=O)cc4s3)c2)CC1 [Example 234, tert-butyl 4-(4-chloro-3-(6-(methylsulfonyl)benzo[d]thiazol-2-ylcarbamoyl-carbamoyl)phenyl) piperazine-1-carboxylate]
21 | 1.2 | 36.2 | 6.92 | CN1CCCN(CCCS(=O)(=O)c2ccc3nc(NC(=O)NC(=O)c4ccccc4Cl)sc3c2)CC1 [Example 204, 2-Chloro-N-[[6-[3-(4-methyl-1,4-diazepan-1-yl)propylsulfonyl]benzothiazol-2-yl]carbamoyl]benzamide]
22 | 51.9 | 21.3 | 82.2 | O=C(NC(=O)c1ccccc1Cl)Nc1nc2ccc(S(=O)(=O)CCc3ccccn3)cc2s1 [Example 190, 2-Chloro-N-[[6-(2-pyridin-2-ylethylsulfonyl)benzothiazol-2-yl]carbamoyl]benzamide]
23 | 10.8 | 32.1 | 11 | CC(=O)N1CCN(CCCS(=O)(=O)c2ccc3nc(NC(=O)NC(=O)c4ccccc4Cl)sc3c2)CC1 [Example 198, N-[[6-[3-(4-Acetylpiperazin-1-yl)propylsulfonyl]benzothiazol-2-yl]carbamoyl]-2-chloro-benzamide]

Source: patent US20120115845A1, “THERAPEUTIC AGENTS” (priority 2007, published 2012)
